{"source": "patent US20030144259A1", "about": "“Breast cancer hormonal therapy” (priority 2000, published 2003)", "origin": "cited, not measured here", "conditions": "human, in vivo; cited from earlier work", "data": [{"smiles": "CCC1(c2ccc(N)cc2)CCC(=O)NC1=O", "note": "(stereo not shown) [aminoglutethimide]", "values": [{"measurement": "dizziness", "result": 15, "unit": "%"}, {"measurement": "lethargy", "result": 36, "unit": "%"}, {"measurement": "nausea and vomiting", "result": 10, "unit": "%"}, {"measurement": "patients requiring discontinuation of drug", "result": "about 5%"}, {"measurement": "patients with side effects", "result": "about 35%"}, {"measurement": "severe myelosuppression", "result": "less than 1%"}, {"measurement": "transient maculopapular rash", "result": 25, "unit": "%"}]}]}
